Results from ChEMBL document CHEMBL3045068, “Effect of methomyl and oxamyl soil applications on early control of nematodes and insects” (Pest Manag Sci, 2011).
In brackets after ≈: the same amount, converted by molar mass.

Columns and labels:
Phaseolus lunatus [1] = assay: Phytotoxicity in Phaseolus lunatus (lima bean) plant assessed as emergence at 1.12 kg ai/ha applied to soil under green house conditions (reference value: 70 +/- 16%); assay type: organism-based; conditions: in vivo, other
Meloidogyne incognita [2] = assay: Nematicidal activity against second juvenile stage of Meloidogyne incognita (root-knot nematode) infected pea plant assessed as plant fresh weight at 3 kg ai/ha applied to soil measured up to 14 days post planting under green house conditions (reference value: 4.3 +/- 0.56 g); assay type: functional
Pisum sativum [3] = assay: Phytotoxicity in Pisum sativum (pea) assessed as root dry weight at 4 kg ai/ha applied to soil measured up to 7 days post planting at 27 degC under green house conditions (reference value: 0.33 +/- 0.075 g); assay type: organism-based; conditions: lathyrus oleraceus, in vivo, other, 168 h
Aphis gossypii = assay: Insecticidal activity against Aphis gossypii (cotton aphid) infested cotton assessed as mortality applied through foliar spray after 5 days; assay type: functional
Phaseolus lunatus [4] = assay: Phytotoxicity in Phaseolus lunatus (lima bean) root assessed as root dry weight at 0.56 kg ai/ha applied to soil under green house conditions (reference value: 0.36 +/- 0.071 g); assay type: organism-based; conditions: in vivo, other
Pisum sativum [5] = assay: Phytotoxicity in Pisum sativum (pea) assessed as plant fresh weight at 4 kg ai/ha applied to soil measured up to 7 days post planting at 19 degC (reference value: 9.4 +/- 0.54 g); assay type: organism-based; conditions: lathyrus oleraceus, in vivo, other, 168 h
Phaseolus lunatus [6] = assay: Phytotoxicity in Phaseolus lunatus (lima bean) plant assessed as plant dry weight at 2.56 kg ai/ha applied to soil measured up to 14 days under green house conditions (reference value: 1.20 +/- 0.21 g); assay type: organism-based; conditions: in vivo, other, 336 h
Meloidogyne incognita [7] = assay: Nematicidal activity against second juvenile stage of Meloidogyne incognita (root-knot nematode) assessed as mortality after 72 hr; assay type: functional
Gossypium hirsutum [8] = assay: Phytotoxicity in Gossypium hirsutum (cotton) assessed as concentration required to cause foliar edge burn applied to soil after 4 weeks; assay type: organism-based; conditions: in vivo, other, 672 h
Meloidogyne incognita [9] = assay: Nematicidal activity against second juvenile stage of Meloidogyne incognita (root-knot nematode) infected lima bean plant assessed as reduction in root gall index at 2 kg ai/ha applied to soil measured up to 7 days post planting under green house conditions (reference value: 7 +/- 0.27%); assay type: functional
Meloidogyne incognita [10] = assay: Nematicidal activity against second juvenile stage of Meloidogyne incognita (root-knot nematode) infected lima bean plant assessed as reduction in root gall index at 1 kg ai/ha applied to soil measured during planting under green house conditions (reference value: 7 +/- 0.27%); assay type: functional
Meloidogyne incognita [11] = assay: Nematicidal activity against second juvenile stage of Meloidogyne incognita (root-knot nematode) infected lima bean plant assessed as shoot dry weight at 3 kg ai/ha applied to soil measured up to 7 days post planting under green house conditions (reference value: 1.84 +/- 0.18 g); assay type: functional
Pisum sativum [12] = assay: Phytotoxicity in Pisum sativum (pea) assessed as plant height at 2 kg ai/ha applied to soil measured up to 7 days post planting at 27 degC under green house conditions (reference value: 9.6 +/- 1.5 cm); assay type: organism-based; conditions: lathyrus oleraceus, in vivo, other, 168 h
Phaseolus lunatus [13] = assay: Phytotoxicity in Phaseolus lunatus (lima bean) plant assessed as emergence at 3.12 kg ai/ha applied to soil measured up to 14 days under green house conditions (reference value: 70 +/- 16%); assay type: organism-based; conditions: in vivo, other, 336 h
Gossypium hirsutum [14] = assay: Phytotoxicity in Gossypium hirsutum (cotton) assessed as concentration required to cause foliar edge burn applied through foliar spray after 3 weeks; assay type: organism-based; conditions: in vivo, other, 504 h
Meloidogyne incognita [15] = assay: Nematicidal activity against second juvenile stage of Meloidogyne incognita (root-knot nematode) infected lima bean plant assessed as emergence at 3 kg ai/ha applied to soil measured up to 7 days post planting under green house conditions (reference value: 83 +/- 5%); assay type: functional
Solanum lycopersicum = assay: Phytotoxicity in Solanum lycopersicum (tomato) assessed as concentration required to cause foliar edge burn applied to soil after 5 weeks; assay type: organism-based; conditions: in vivo, 840 h
Meloidogyne incognita [16] = assay: Nematicidal activity against second juvenile stage of Meloidogyne incognita (root-knot nematode) infected pea plant assessed as root fresh weight at 2 kg ai/ha applied to soil measured up to 7 days post planting under green house conditions (reference value: 1.83 +/- 0.3 g); assay type: functional
Pisum sativum [17] = assay: Phytotoxicity in Pisum sativum (pea) assessed as plant fresh weight at 2 kg ai/ha applied to soil measured up to 7 days post planting at 19 degC (reference value: 9.4 +/- 0.54 g); assay type: organism-based; conditions: lathyrus oleraceus, in vivo, other, 168 h
Meloidogyne incognita [18] = assay: Nematicidal activity against second juvenile stage of Meloidogyne incognita (root-knot nematode) infected lima bean plant assessed as emergence at 3 kg ai/ha applied to soil measured up to 14 days post planting under green house conditions (reference value: 83 +/- 5%); assay type: functional
Phaseolus lunatus [19] = assay: Phytotoxicity in Phaseolus lunatus (lima bean) root assessed as root dry weight at 3.12 kg ai/ha applied to soil measured up to 14 days under green house conditions (reference value: 0.36 +/- 0.071 g); assay type: organism-based; conditions: in vivo, other, 336 h
Meloidogyne incognita [20] = assay: Nematicidal activity against second juvenile stage of Meloidogyne incognita (root-knot nematode) infected pea plant assessed as emergence at 4 kg ai/ha applied to soil measured up to 14 days post planting under green house conditions (reference value: 75 +/- 13%); assay type: functional
Pisum sativum [21] = assay: Phytotoxicity in Pisum sativum (pea) assessed as plant fresh weight at 4 kg ai/ha applied to soil measured up to 7 days post planting at 27 degC under green house conditions (reference value: 3.9 +/- 0.83 g); assay type: organism-based; conditions: lathyrus oleraceus, in vivo, other, 168 h
Phaseolus lunatus [22] = assay: Phytotoxicity in Phaseolus lunatus (lima bean) plant assessed as emergence at 2.12 kg ai/ha applied to soil measured up to 7 days under green house conditions (reference value: 70 +/- 16%); assay type: organism-based; conditions: in vivo, other, 168 h

CNC(=O)ON=C(C)SC [METHOMYL]
Activity (Phaseolus lunatus [1]): 80%
Activity (Meloidogyne incognita [2]): 5.2 g
Activity (Pisum sativum [3]): 0.28 g
LC90 (Aphis gossypii): 54 µg/mL (≈ 333 µM)
LC50 (Aphis gossypii; Aphis gossypii, foliar, 120 h): 25 µg/mL (≈ 154 µM)
Activity (Phaseolus lunatus [4]): 0.35 g
Activity (Pisum sativum [5]): 8.5 g
Activity (Phaseolus lunatus [6]): 1.25 g
LC90 (Meloidogyne incognita [7]): 9.8 µg/mL (≈ 60.4 µM)
LC50 (Meloidogyne incognita [7]; Meloidogyne incognita, Juvenile stage, 72 h): 3.6 µg/mL (≈ 22.2 µM)
Activity (Gossypium hirsutum [8]): 100 µg/mL
Root_galling_index (Meloidogyne incognita [9]): 0%
Root_galling_index (Meloidogyne incognita [10]): 0%
Activity (Meloidogyne incognita [11]): 1.39 g
Activity (Pisum sativum [12]): 7.1 cm
Activity (Phaseolus lunatus [13]): 60%
Activity (Gossypium hirsutum [14]): 100 µg/mL
Activity (Meloidogyne incognita [15]): 83%
Activity (Solanum lycopersicum): 100 µg/mL
Activity (Meloidogyne incognita [16]): 2.04 g
Activity (Pisum sativum [17]): 11.6 g
Activity (Meloidogyne incognita [18]): 83%
Activity (Phaseolus lunatus [19]): 0.22 g
Activity (Meloidogyne incognita [20]): 38%
Activity (Pisum sativum [21]): 3.1 g
Activity (Phaseolus lunatus [22]): 80%
